Earlier results, collected in publication PMC8260592 (Scientific Reports, 2021).
In brackets after ≈: the same amount, converted by molar mass. Where two headings read alike, the source gives them in different places.

System: AChE
Conditions: cited from earlier work

COc1cc(/C=C/C(=O)CC(=O)/C=C/c2ccc(O)c(OC)c2)ccc1O [curcumin]
IC50 (ref 51): 23.5 µM

O=C(O[C@@H]1Cc2c(O)cc(O)cc2O[C@@H]1c1cc(O)c(O)c(O)c1)c1cc(O)c(O)c(O)c1 [epigallocatechin gallate]
IC50 (ref 52): 14.8 µM

COc1cc2oc(-c3ccc(O)cc3)cc(=O)c2c(O)c1[C@@H]1O[C@H](CO)[C@@H](O)[C@H](O)[C@H]1O [swertisin, isovitexin-7-O-methyl ether]
IC50 (converted from µg/mL): 71.9 µM | IC50 AChE (ref 49): 32.09 µg/mL (≈ 71.9 µM)

O=C(/C=C/c1ccc(O)cc1)OC[C@H]1O[C@@H](Oc2c(-c3ccc(O)cc3)oc3cc(O)cc(O)c3c2=O)[C@H](O)[C@@H](O)[C@@H]1O [tiliroside]
IC50 (ref 50): 23.5 µM

Oc1ccc([C@H]2c3c(O)cc(O)cc3[C@H]3c4c(cc(O)cc4[C@@H]2c2cc(/C=C/c4cc(O)cc5c4[C@H](c4cc(O)cc(O)c4)[C@@H](c4ccc(O)cc4)O5)ccc2O)O[C@@H]3c2ccc(O)cc2)cc1 [vitisin A]
IC50 (ref 56): 1.04 µM

COc1c(O)cc2oc3cc(O)c(CC=C(C)C)c(O)c3c(=O)c2c1CC=C(C)C [α-mangostin]
IC50 (ref 53): 2.48 µM | IC50 (ref 54): 6.3 µM

heyneanol A
IC50 (ref 56): 1.66 µM
